Results on 23 compounds are retold here after patent US12344603B2 (Genentech, Inc., priority 2020, dated 2025).

Structures can show the parent of a compound that is named as a salt.

Sequence of IRE1α (O75460 547-977 D688N): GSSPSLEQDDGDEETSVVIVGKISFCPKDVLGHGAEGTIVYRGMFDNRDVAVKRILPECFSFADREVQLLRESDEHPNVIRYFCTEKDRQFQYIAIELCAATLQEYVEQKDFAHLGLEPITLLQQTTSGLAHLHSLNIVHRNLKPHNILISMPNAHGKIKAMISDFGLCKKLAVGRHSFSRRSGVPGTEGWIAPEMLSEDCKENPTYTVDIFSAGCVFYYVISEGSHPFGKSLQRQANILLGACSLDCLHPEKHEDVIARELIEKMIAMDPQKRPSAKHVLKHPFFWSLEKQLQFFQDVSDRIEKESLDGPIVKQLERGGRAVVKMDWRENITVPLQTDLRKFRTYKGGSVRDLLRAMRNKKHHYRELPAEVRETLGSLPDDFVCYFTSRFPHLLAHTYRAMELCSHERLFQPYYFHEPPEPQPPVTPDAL

This assay addresses IRE1α (Homo sapiens (Human), UniProt O75460, D688N). In words: IRE1α TR-FRET competition binding assay (IRE1α HTRF). The note with it: TR-FRET competition binding to kinase domain of IRE1α. In outline:
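Kinase domain (0.25 nM) pre-bound to 2 nM Eu anti-His antibody for 1 h at 4° C in HEPES pH 7.5/MgCl2/Brij 35/DTT/gamma globulin buffer, then mixed with compounds and 2 nM Alexa 647 ATP-competitive probe. 1 h at room temperature; probe displacement read as TR-FRET (Ex 347 nm, Em 665/615 nm).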
For orientation: TR-FRET usually uses a lanthanide donor and a delayed reading to cut background.
The IC50 is the concentration that gives 50% inhibition. A low value points to inhibition by little substance. For the compound `CC(C)n1c(=O)c(-c2ccc(NS(=O)(=O)N3CCCCC3)c(F)c2)nc2cnc(N[C@@H]3CNC[C@@H](F)C3)nc21` [Compound 162, N-(2-Fluoro-4-(2-(((3S,5S)-5-fluoropiperidin-3-yl)amino)-8-isopropyl-7-oxo-7,8-dihydropteridin-6-yl)phenyl)piperidine-1-sulfonamide], the half-inhibitory concentration (IC50) worked out at 1.3 nM.
The compound `CC(C)n1c(=O)c(-c2ccc(NS(=O)(=O)N3CCCC3)c(F)c2)nc2cnc(N[C@@H]3CNC[C@@H](F)C3)nc21` [Compound 163, N-(2-Fluoro-4-(2-(((3S,5S)-5-fluoropiperidin-3-yl)amino)-8-isopropyl-7-oxo-7,8-dihydropteridin-6-yl)phenyl)pyrrolidine-1-sulfonamide] registered a 50% inhibitory concentration (IC50) of 0.97 nM.
The result for `CC(C)n1c(=O)c(-c2ccc(NS(=O)(=O)N(C)C)c(F)c2)nc2cnc(N[C@@H]3CNC[C@@H](F)C3)nc21` [Compound 164, 6-(4-(Dimethylsulfamoylamino)-3-fluoro-phenyl)-2-(((3S,5S)-5-fluoro-3-piperidyl)amino)-8-isopropyl-7-oxo-pteridine] reads 0.43 nM; that for `CCC(F)(F)CS(=O)(=O)Nc1ccc(-c2nc3cnc(N[C@H]4CC[C@H](N(C)C)CC4)nc3n(C(C)C)c2=O)cc1F` [Compound 165, N-(4-(2-(((1r,4r)-4-(Dimethylamino)cyclohexyl)amino)-8-isopropyl-7-oxo-7,8-dihydropteridin-6-yl)-2-fluorophenyl)-2,2-difluorobutane-1-sulfonamide hydrochloride], 0.1 nM.
The result for `Cc1ccc(CS(=O)(=O)Nc2ccc(-c3nc4cnc(N[C@@H]5CNC[C@@H](F)C5)nc4n(C(C)C)c3=O)cc2F)c(C#N)c1` [Compound 166, 1-(2-Cyano-4-methylphenyl)-N-(2-fluoro-4-(2-(((3S,5S)-5-fluoropiperidin-3-yl)amino)-8-isopropyl-7-oxo-7,8-dihydropteridin-6-yl)phenyl)methanesulfonamide] reads 0.09 nM; that for `CC(C)n1c(=O)c(-c2ccc(NS(=O)(=O)c3ccccc3Cl)c(F)c2)nc2cnc(N[C@H]3CC[C@H](N(C)C)CC3)nc21` [Compound 167, 2-Chloro-N-(4-(2-(((1r,4r)-4-(dimethylamino)cyclohexyl)amino)-8-isopropyl-7-oxo-7,8-dihydropteridin-6-yl)-2-fluorophenyl)benzenesulfonamide], 0.18 nM.
In turn, `CC(C)n1c(=O)c(-c2c(F)cc(NS(=O)(=O)CCC(F)(F)F)cc2F)nc2cnc(N[C@H]3CC[C@H](N(C)C)CC3)nc21` [Compound 169, N-(4-(2-(((1r,4r)-4-(Dimethylamino)cyclohexyl)amino)-8-isopropyl-7-oxo-7,8-dihydropteridin-6-yl)-3,5-difluorophenyl)-3,3,3-trifluoropropane-1-sulfonamide] registered an IC50 of 0.69 nM.
In turn, `Cc1ccc(CS(=O)(=O)Nc2c(F)cc(-c3nc4cnc(N[C@@H]5CNC[C@@H](F)C5)nc4n(C(C)C)c3=O)c(F)c2F)cc1` [Compound 170, 1-p-Tolyl-N-(2,3,6-trifluoro-4-(2-(((3S,5S)-5-fluoropiperidin-3-yl)amino)-8-isopropyl-7-oxo-7,8-dihydropteridin-6-yl)phenyl)methanesulfonamide hydrochloride] had an IC50 of 0.13 nM.
On to `CC(C)n1c(=O)c(-c2cc(F)c(NS(=O)(=O)Cc3ccc(F)cc3)c(F)c2F)nc2cnc(N[C@@H]3CNC[C@@H](F)C3)nc21` [Compound 171, 1-(4-Fluorophenyl)-N-(2,3,6-trifluoro-4-(2-(((3S,5S)-5-fluoropiperidin-3-yl)amino)-8-isopropyl-7-oxo-7,8-dihydropteridin-6-yl)phenyl)methanesulfonamide hydrochloride], for which the IC50 worked out at 0.12 nM.
The result for `CC(C)n1c(=O)c(-c2c(F)cc(NS(=O)(=O)CCC(F)(F)F)c(F)c2F)nc2cnc(N[C@H]3CC[C@H](N(C)C)CC3)nc21` [Compound 172, N-(4-(2-(((1r,4r)-4-(Dimethylamino)cyclohexyl)amino)-8-isopropyl-7-oxo-7,8-dihydropteridin-6-yl)-2,3,5-trifluorophenyl)-3,3,3-trifluoropropane-1-sulfonamide hydrochloride] reads 0.35 nM; that for `COc1nc(NS(=O)(=O)c2ccccc2Cl)ccc1-c1nc2cnc(N[C@H]3CC[C@H](N(C)C)CC3)nc2n(C(C)C)c1=O` [Compound 173, 2-Chloro-N-(5-(2-(((1r,4r)-4-(dimethylamino)cyclohexyl)amino)-8-isopropyl-7-oxo-7,8-dihydropteridin-6-yl)-6-methoxypyridin-2-yl)benzenesulfonamide], 0.27 nM; that for `CC(C)n1c(=O)c(-c2cc(F)c(NS(=O)(=O)Cc3ccc(F)cc3)cc2F)nc2cnc(N[C@H]3CC[C@H](N(C)C)CC3)nc21` [Compound 174, N-(4-(2-(((1r,4r)-4-(Dimethylamino)cyclohexyl)amino)-8-isopropyl-7-oxo-7,8-dihydropteridin-6-yl)-2,5-difluorophenyl)-1-(4-fluorophenyl)methanesulfonamide hydrochloride], 0.26 nM.
With `CC(C)n1c(=O)c(-c2cc(F)c(NS(=O)(=O)Cc3ccc(F)cc3)c(F)c2F)nc2cnc(N[C@H]3CC[C@H](N(C)C)CC3)nc21` [Compound 175, N-(4-(2-(((1r,4r)-4-(Dimethylamino)cyclohexyl)amino)-8-isopropyl-7-oxo-7,8-dihydropteridin-6-yl)-2,3,6-trifluorophenyl)-1-(4-fluorophenyl)methanesulfonamide hydrochloride] the figure was 0.14 nM; with `CC(C)n1c(=O)c(-c2ccc(NS(=O)(=O)Cc3ccc(F)cc3)c(F)c2)nc2cnc(N[C@H]3CC[C@H](N(C)CCF)CC3)nc21` [Compound 176, N-(2-Fluoro-4-(2-(((1r,4r)-4-((2-fluoroethyl)(methyl)amino)cyclohexyl)amino)-8-isopropyl-7-oxo-7,8-dihydropteridin-6-yl)phenyl)-1-(4-fluorophenyl)methanesulfonamide], 0.14 nM; with `CC(C)n1c(=O)c(-c2ccc(NS(=O)(=O)CCC(F)(F)F)c(F)c2)nc2cnc(N[C@H]3CC[C@H](N(C)CCF)CC3)nc21` [Compound 177, 3,3,3-Trifluoro-N-(2-fluoro-4-(2-(((1r,4r)-4-((2-fluoroethyl)(methyl)amino)cyclohexyl)amino)-8-isopropyl-7-oxo-7,8-dihydropteridin-6-yl)phenyl)propane-1-sulfonamide], 0.24 nM.
Compound `CC(C)n1c(=O)c(-c2ccc(NS(=O)(=O)c3ccccc3Cl)nc2)nc2cnc(N[C@H]3CC[C@H](N(C)C)CC3)nc21` [Compound 178, 2-Chloro-N-(5-(2-(((1r,4r)-4-(dimethylamino)cyclohexyl)amino)-8-isopropyl-7-oxo-7,8-dihydropteridin-6-yl)pyridin-2-yl)benzenesulfonamide] gave a half-maximal inhibitory concentration (IC50) of 0.26 nM.
Compound `CC(C)n1c(=O)c(-c2ccc(NS(=O)(=O)CC3CC(F)(F)C3)c(F)c2)nc2cnc(N[C@H]3CC[C@H](N(C)CCF)CC3)nc21` [Compound 180, 1-(3,3-Difluorocyclobutyl)-N-(2-fluoro-4-(2-(((1r,4r)-4-((2-fluoroethyl)(methyl)amino)cyclohexyl)amino)-8-isopropyl-7-oxo-7,8-dihydropteridin-6-yl)phenyl)methanesulfonamide] registered a 50% inhibitory concentration (IC50) of 0.29 nM.
`CC(C)n1c(=O)c(-c2ccc(NS(=O)(=O)CCN3CC(F)(F)C3)c(F)c2)nc2cnc(N[C@H]3CC[C@H](N(C)C)CC3)nc21` [Compound 182, 2-(3,3-Difluoroazetidin-1-yl)-N-(4-(2-(((1r,4r)-4-(dimethylamino)cyclohexyl)amino)-8-isopropyl-7-oxo-7,8-dihydropteridin-6-yl)-2-fluorophenyl)ethane-1-sulfonamide] gave an IC50 of 0.87 nM.
The result for `CC(C)n1c(=O)c(-c2ccc(NS(=O)(=O)Cc3ccccc3)c(F)c2)nc2cnc(N[C@H]3CC[C@H](N(C)CCF)CC3)nc21` [Compound 183, N-(2-fluoro-4-(2-(((1r,4r)-4-((2-fluoroethyl)(methyl)amino)cyclohexyl)amino)-8-isopropyl-7-oxo-7,8-dihydropteridin-6-yl)phenyl)-1-phenylmethanesulfonamide] reads 0.12 nM; that for `CC(C)n1c(=O)c(-c2ccc(NS(=O)(=O)Cc3ccc(F)cc3)c(F)c2)nc2cnc(N[C@H]3CC[C@H](N(C)C)CC3)nc21` [Compound 184, N-(4-(2-(((1r,4r)-4-(dimethylamino)cyclohexyl)amino)-8-isopropyl-7-oxo-7,8-dihydropteridin-6-yl)-2-fluorophenyl)-1-(4-fluorophenyl)methanesulfonamide], 0.25 nM; that for `CC(C)n1c(=O)c(-c2cc(F)c(NS(=O)(=O)Cc3ccccc3)c(F)c2F)nc2cnc(N[C@@H]3CNC[C@@H](F)C3)nc21` [Compound 185, 1-Phenyl-N-(2,3,6-trifluoro-4-(2-(((3S,5S)-5-fluoropiperidin-3-yl)amino)-8-isopropyl-7-oxo-7,8-dihydropteridin-6-yl)phenyl)methanesulfonamide], 0.17 nM.
Compound `Cc1cc(NS(=O)(=O)CCC(F)(F)F)ncc1-c1nc2cnc(N[C@H]3CC[C@H](N(C)C)CC3)nc2n(C(C)C)c1=O` [Compound 186, N-(5-(2-(((1r,4r)-4-(Dimethylamino)cyclohexyl)amino)-8-isopropyl-7-oxo-7,8-dihydropteridin-6-yl)-4-methylpyridin-2-yl)-3,3,3-trifluoropropane-1-sulfonamide] registered an IC50 of 0.95 nM.
The result for `CC(C)n1c(=O)c(-c2ccc(NS(=O)(=O)CCC(F)(F)F)nc2)nc2cnc(N[C@H]3CC[C@H](N(C)CCF)CC3)nc21` [Compound 187, 3,3,3-Trifluoro-N-(5-(2-(((1r,4r)-4-((2-fluoroethyl)(methyl)amino)cyclohexyl)amino)-8-isopropyl-7-oxo-7,8-dihydropteridin-6-yl)pyridin-2-yl)propane-1-sulfonamide] reads 0.31 nM.
